# Results from ChEMBL document CHEMBL6103650, “Hybrid Molecules of Benzothiazole and Hydroxamic Acid as Dual-Acting Biofilm Inhibitors with Antibacterial Synergistic Effect against Pseudomonas aeruginosa Infections” (J Med Chem, 2025).
# pIC50: −log10 of the molar value.
# How the values were obtained:
# Pseudomonas aeruginosa [1] = experiment: Antibiofilm activity against Pseudomonas aeruginosa PA14 assessed as inhibition of biofilm formation incubated for 24 hrs by crystal violet staining based analysis; format: functional, organism-based; conditions: PA14, 24 h
# Pseudomonas aeruginosa [2] = experiment: Antibacterial activity against Pseudomonas aeruginosa PAO1 assessed as inhibition of bacterial growth incubated for 24 hrs by serial dilution method; format: functional
# Pseudomonas aeruginosa [3] = experiment: Antibiofilm activity against Pseudomonas aeruginosa PAO1 assessed as inhibition of biofilm formation incubated for 24 hrs by crystal violet staining based analysis; format: functional, organism-based; conditions: PAO1, 24 h
# Pseudomonas aeruginosa [4] = experiment: Antibiofilm activity against Pseudomonas aeruginosa PAO1 assessed as reduction in pFe(III) content incubated for 24 hrs; format: functional
# Pseudomonas aeruginosa [5] = experiment: Antibacterial activity against Pseudomonas aeruginosa PAO1 infected in BALB/c mouse wound infection model assessed as bacterial survival rate in wound at 0.5 mg/mL administered to wound once a day for 3 days in dropwise manner; format: functional; conditions: PAO1, 72 h, time 3 day
# Pseudomonas aeruginosa [6] = experiment: Antibacterial activity against Pseudomonas aeruginosa PAO1 infected in BALB/c mouse wound infection model assessed as reduction in wound area at 0.0025 mg/mL administered to wound once a day for 3 days and measured after 9 days in dropwise manner; format: functional; set-up: scale not given: the % may be the effect or the level left; conditions: time 12 day
# Pseudomonas aeruginosa [7] = experiment: Antibacterial activity against Pseudomonas aeruginosa PAO1 infected in BALB/c mouse wound infection model assessed as reduction in wound area at 0.5 mg/mL administered to wound once a day for 3 days and measured after 9 days in dropwise manner; format: functional; set-up: scale not given: the % may be the effect or the level left; conditions: time 12 day
Compound,pIC50 (Pseudomonas aeruginosa [1]),MIC (Pseudomonas aeruginosa [2]),pIC50 (Pseudomonas aeruginosa [3]),Activity (Pseudomonas aeruginosa [4]),survival at 500 µg/mL (Pseudomonas aeruginosa [5]),Activity (Pseudomonas aeruginosa [6]),Activity (Pseudomonas aeruginosa [7])
O=C(Cc1ccc(CNC(=O)CNc2nc3cc(F)ccc3s2)cc1)NO,5.10,> 256 µM,5.50,,,,
Cc1ccc2nc(NCC(=O)Nc3ccc(CC(=O)NO)cc3)sc2c1,5.36,> 256 µM,5.79,,,,
O=C(Cc1ccc(CNC(=O)CNc2nc3ccc(Br)cc3s2)cc1)NO,5.53,> 256 µM,5.93,,,,
COc1cccc2sc(NCC(=O)Nc3ccc(CC(=O)NO)cc3)nc12,5.41,> 256 µM,5.85,,,,
Cc1ccc2nc(NCC(=O)NCc3ccc(CC(=O)NO)cc3)sc2c1,5.25,> 256 µM,5.69,,,,
O=C(NO)c1ccc(CNC(=O)c2nc3ccccc3s2)cc1,4.95,> 256 µM,5.41,,,,
O=C(CCCCNC(=O)CNc1nc2ccc(Cl)cc2s1)NO,5.25,> 256 µM,5.69,,,,
COc1cccc(NCC(=O)NCCCCC(=O)NO)c1,< 4.00,> 256 µM,< 4.10,,,,
COc1ccc2nc(NCC(=O)NCCCC(=O)NO)sc2c1,4.82,> 256 µM,5.29,,,,
COc1ccc2sc(NCC(=O)NCCCCC(=O)NO)nc2c1,5.47,> 256 µM,5.89,,,,
COc1ccc(NCC(=O)NCCCCC(=O)NO)cc1,< 4.00,> 256 µM,< 4.10,,,,
O=C(Cn1cc(CNc2nc3ccc(C(F)(F)F)cc3s2)nn1)NO,5.27,> 256 µM,5.69,,,,
COc1cccc2sc(NCC(=O)NCCCCC(=O)NO)nc12,5.72,> 256 µM,6.29,,,,
O=C(CCCCNC(=O)CNc1nccs1)NO,4.51,> 256 µM,4.83,,,,
O=C(CCCCNC(=O)CNc1nc2ccc(F)cc2s1)NO,5.28,> 256 µM,5.70,,,,
O=C(CCCCNC(=O)CNc1nc2ccc(C(F)(F)F)cc2s1)NO,5.37,> 256 µM,5.76,,,,
O=C(CCCCNC(=O)CNc1ccccc1)NO,< 4.00,> 256 µM,< 4.10,,,,
COc1ccc2nc(NCC(=O)NCCCCN)sc2c1,< 4.00,> 256 µM,< 4.10,,,,
O=C(CCCCNC(=O)CNc1nc2ccc(Br)cc2s1)NO,5.35,> 256 µM,5.83,,,,
O=C(Cc1ccc(CNC(=O)CNc2nc3cc(Br)ccc3s2)cc1)NO,5.20,> 256 µM,5.61,,,,
O=C(Cn1cc(CNC(=O)c2nc3ccccc3s2)nn1)NO,4.61,> 256 µM,4.89,,,,
CC[C@H]1OC(=O)[C@H](C)[C@@H](O[C@H]2C[C@@](C)(OC)[C@@H](O)[C@H](C)O2)[C@H](C)[C@@H](O[C@@H]2O[C@H](C)C[C@H](N(C)C)[C@H]2O)[C@](C)(O)C[C@@H](C)CN(C)[C@H](C)[C@@H](O)[C@]1(C)O [AZITHROMYCIN],4.42,> 256 µM,4.96,,,,
O=C(Cc1ccc(CNC(=O)CNc2nc3ccc(C(F)(F)F)cc3s2)cc1)NO,5.14,> 256 µM,5.50,,,,
COc1ccc2nc(NCC(=O)NCc3ccc(CC(=O)NO)cc3)sc2c1,4.81,> 256 µM,5.21,,,,

Compound,pIC50 (Pseudomonas aeruginosa [1]),MIC (Pseudomonas aeruginosa [2]),pIC50 (Pseudomonas aeruginosa [3]),Activity (Pseudomonas aeruginosa [4]),survival at 500 µg/mL (Pseudomonas aeruginosa [5]),Activity (Pseudomonas aeruginosa [6]),Activity (Pseudomonas aeruginosa [7])
Cc1ccc2nc(NCC(=O)NCCCCC(=O)NO)sc2c1,5.66,> 256 µM,6.10,,,,
COc1ccc2nc(NCC(=O)NCCCCCC(=O)NO)sc2c1,5.41,> 256 µM,5.80,,,,
O=C(CCCCCNC(=O)c1nc2ccccc2s1)NO,4.72,> 256 µM,4.99,,,,
O=C(CCCCCNC(=O)CNc1nc2ccccc2s1)NO,5.37,> 256 µM,5.80,,,,
O=C(CCCCCNC(=O)CNc1nc2ccc(C(F)(F)F)cc2s1)NO,4.93,> 256 µM,5.44,,,,
Cc1c(O)c(=O)ccn1C [DEFERIPRONE],,,,20.13,,,
NC[C@H]1O[C@H](O[C@H]2[C@H](O)[C@@H](O[C@H]3O[C@H](CO)[C@@H](O)[C@H](N)[C@H]3O)[C@H](N)C[C@@H]2N)[C@H](N)C[C@@H]1O [TOBRAMYCIN],,,,,0.22%,41%,36%
O=C(CCCCCCNC(=O)CNc1nc2ccccc2s1)NO,4.85,> 256 µM,5.06,,,,
COc1cccc2sc(NCC(=O)NCc3ccc(CC(=O)NO)cc3)nc12,5.11,> 256 µM,5.55,,,,
O=C(CCCCNC(=O)CNc1nc2ccccc2s1)NO,5.15,> 256 µM,5.48,,,,
O=C(CCCCCCNC(=O)CNc1nc2ccc(C(F)(F)F)cc2s1)NO,5.18,> 256 µM,5.49,,,,
COC(=O)CCCCNC(=O)CNc1nc2ccc(OC)cc2s1,4.73,> 256 µM,4.83,,,,
O=C(CCCCCCNC(=O)CNc1nc2ccc(Cl)cc2s1)NO,4.61,> 256 µM,4.87,,,,
COc1ccc2nc(NCc3cn(CC(=O)NO)nn3)sc2c1,5.29,> 256 µM,5.71,,,,
O=C(CCCCNC(=O)CNc1nc2cc(F)ccc2s1)NO,4.54,> 256 µM,4.83,,,,
CCOc1ccc2nc(NCC(=O)NCc3ccc(CC(=O)NO)cc3)sc2c1,4.87,> 256 µM,5.40,,,,
O=C(CCCCCNC(=O)CNc1nc2ccc(Cl)cc2s1)NO,4.44,> 256 µM,4.68,,,,
O=C(CCCNC(=O)c1nc2ccccc2s1)NO,5.37,> 256 µM,5.72,,,,
COc1ccccc1NCC(=O)NCCCCC(=O)NO,4.26,> 256 µM,4.57,,,,
O=C(CCCCNC(=O)CNc1nc2cc(Cl)ccc2s1)NO,4.83,> 256 µM,5.15,,,,
O=C(CCCCCCNC(=O)c1nc2ccccc2s1)NO,4.44,> 256 µM,4.85,,,,
COc1ccc2nc(NCC(=O)NC3CCC(C(=O)NO)CC3)sc2c1 (centres undefined),4.83,> 256 µM,5.18,,,,
O=C(Cn1cc(CNc2nc3ccc(Cl)cc3s2)nn1)NO,4.76,> 256 µM,4.99,,,,
